Experimental data: US7968556B2, “Heteroaryl compounds, compositions thereof, and methods of treatment therewith” (Signal Pharmaceuticals, LLC, priority 2006, dated 2011)

| melting point | SMILES |
| --- | --- |
| > 350 °C | COc1ccccc1-n1c(=O)[nH]c2c(C(N)=O)nc(-c3ccc(C(N)=O)cc3)nc21 [Compound 65, 2-(4-Carbamoylphenyl)-9-(2-methoxyphenyl)-8-oxo-8,9-dihydro-7H-purine-6-carboxamide] |
| 318 to 320 °C | COc1ccccc1-n1c(=O)[nH]c2c(C(N)=O)nc(-c3ccncc3)nc21 [Compound 75, 9-(2-Methoxyphenyl)-8-oxo-2-(pyridin-4-yl)-8,9-dihydro-7H-purine-6-carboxamide] |
| > 250 °C | NC(=O)c1nc(-c2cccc(O)c2)nc2c1[nH]c(=O)n2-c1cccc2c1CCCC2 [Compound 145, 2-(3-Hydroxyphenyl)-8-oxo-9-(5,6,7,8-tetrahydronaphthalen-1-yl)-8,9-dihydro-7H-purine-6-carboxamide] |
| 361 to 363 °C | NC(=O)c1nc(-c2cccc(O)c2)nc2c1[nH]c(=O)n2C1CCOCC1 [Compound 151, 2-(3-Hydroxyphenyl)-8-oxo-9-(tetrahydro-2H-pyran-4-yl)-8,9-dihydro-7H-purine-6-carboxamide] |
| 375 °C (dec.) | NC(=O)c1nc(-c2ccc(-c3nc[nH]n3)cc2)nc2c1[nH]c(=O)n2C1CCCCC1 [Compound 146, 2-(4-(1H-1,2,4-Triazol-3-yl)phenyl)-9-cyclohexyl-8-oxo-8,9-dihydro-7H-purine-6-carboxamide] |
| 341 to 343 °C | NC(=O)c1nc(-c2cccc(O)c2)nc2c1[nH]c(=O)n2C1CCc2ccccc21 (stereo not drawn) [Compound 141, 9-(2,3-Dihydro-1H-inden-1-yl)-2-(3-hydroxyphenyl)-8-oxo-8,9-dihydro-7H-purine-6-carboxamide] |
| 331 to 333 °C | NC(=O)c1nc(-c2cccnc2)nc2c1[nH]c(=O)n2[C@H]1CC[C@H](O)CC1 [Compound 48, 9-(trans-4-Hydroxycyclohexyl)-8-oxo-2-(pyridin-3-yl)-8,9-dihydro-7H-purine-6-carboxamide] |
| 353 to 355 °C | NC(=O)c1nc(-c2cccc(O)c2)nc2c1[nH]c(=O)n2[C@@H]1CCOC1 [Compound 162, (R)-2-(3-Hydroxyphenyl)-8-oxo-9-(tetrahydrofuran-3-yl)-8,9-dihydro-7H-purine-6-carboxamide] |
| 306 °C | COc1ccccc1-n1c(=O)[nH]c2c(C(N)=O)nc(-c3ccc4nc[nH]c4c3)nc21 [Compound 91, 2-(1H-Benzo[d]imidazol-6-yl)-9-(2-methoxyphenyl)-8-oxo-8,9-dihydro-7H-purine-6-carboxamide] |
| 373 to 375 °C | NC(=O)c1nc(-c2cccc(O)c2)nc2c1[nH]c(=O)n2[C@H]1CC[C@H](O)CC1 [Compound 49, 9-(trans-4-Hydroxycyclohexyl)-2-(3-hydroxyphenyl)-8-oxo-8,9-dihydro-7H-purine-6-carboxamide] |

More lines, now with the values behind:

| SMILES | melting point |
| --- | --- |
| COc1ccccc1-n1c(=O)[nH]c2c(C(N)=O)nc(Nc3cccc(CO)c3)nc21 [Compound 123, 2-(3-(Hydroxymethyl)phenylamino)-9-(2-methoxyphenyl)-8-oxo-8,9-dihydro-7H-purine-6-carboxamide] | 237 to 239 °C |
| CC(C)c1ccccc1-n1c(=O)[nH]c2c(C(N)=O)nc(-c3ccc4nc[nH]c4c3)nc21 [Compound 127, 2-(1H-Benzo[d]imidazol-6-yl)-9-(2-isopropylphenyl)-8-oxo-8,9-dihydro-7H-purine-6-carboxamide] | 275 °C (dec.) |
| CC(C)c1ccccc1-n1c(=O)[nH]c2c(C(N)=O)nc(-c3cnc4[nH]ccc4c3)nc21 [Compound 136, 9-(2-Isopropylphenyl)-8-oxo-2-(1H-pyrrolo[2,3-b]pyridin-5-yl)-8,9-dihydro-7H-purine-6-carboxamide] | 380 °C (dec.) |
| NC(=O)c1nc(-c2cnccc2Cl)nc2c1[nH]c(=O)n2-c1ccccc1C(F)(F)F [Compound 109, 2-(4-Chloropyridin-3-yl)-8-oxo-9-(2-(trifluoromethyl)phenyl)-8,9-dihydro-7H-purine-6-carboxamide] | 244 to 248 °C (dec.) |
| COc1ccccc1-n1c(=O)[nH]c2c(C(N)=O)nc(NC[C@H]3CCCN3)nc21 [Compound 113, (R)-9-(2-Methoxyphenyl)-8-oxo-2-(pyrrolidin-2-ylmethylamino)-8,9-dihydro-7H-purine-6-carboxamide] | 155 to 157 °C |
| NC(=O)c1nc(-c2ccc(O)nc2)nc2c1[nH]c(=O)n2-c1ccccc1C(F)(F)F [Compound 100, 2-(6-Hydroxypyridin-3-yl)-8-oxo-9-(2-(trifluoromethyl)phenyl)-8,9-dihydro-7H-purine-6-carboxamide] | 348 to 352 °C (dec.) |
| CC(C)c1ccccc1-n1c(=O)[nH]c2c(C(N)=O)nc(-c3ccc(-n4ccnc4)cc3)nc21 [Compound 131, 2-(4-(1H-Imidazol-1-yl)phenyl)-9-(2-isopropylphenyl)-8-oxo-8,9-dihydro-7H-purine-6-carboxamide] | 232 °C |
| COc1ccccc1-n1c(=O)[nH]c2c(C(N)=O)nc(-c3ccc4nc(C(F)(F)F)[nH]c4c3)nc21 [Compound 117, 9-(2-Methoxyphenyl)-8-oxo-2-(2-(trifluoromethyl)-1H-benzo[d]imidazol-6-yl)-8,9-dihydro-7H-purine-6-carboxamide] | 220 to 222 °C |
| COc1cccc(-n2c(=O)[nH]c3c(C(N)=O)nc(-c4cccc(O)c4)nc32)c1F [Compound 148, 9-(2-Fluoro-3-methoxyphenyl)-2-(3-hydroxyphenyl)-8-oxo-8,9-dihydro-7H-purine-6-carboxamide] | > 260 °C |
| COc1ccccc1-n1c(=O)[nH]c2c(C(N)=O)nc(Nc3ccccc3CO)nc21 [Compound 124, 2-(2-(Hydroxymethyl)phenylamino)-9-(2-methoxyphenyl)-8-oxo-8,9-dihydro-7H-purine-6-carboxamide] | 159 to 162 °C |
| COc1ccccc1-n1c(=O)[nH]c2c(C(N)=O)nc(-c3cccc(C(N)=O)c3)nc21 [Compound 68, 2-(3-Carbamoylphenyl)-9-(2-methoxyphenyl)-8-oxo-8,9-dihydro-7H-purine-6-carbox amide] | 338 to 339 °C |
| COc1ccccc1-n1c(=O)[nH]c2c(C(N)=O)nc(-c3cccc4[nH]ncc34)nc21 [Compound 128, 2-(1H-Indazol-4-yl)-9-(2-methoxyphenyl)-8-oxo-8,9-dihydro-7H-purine-6-carboxamide] | 280 °C |
| NC(=O)c1nc(-c2cccc(O)c2)nc2c1[nH]c(=O)n2-c1ccccc1-c1ccccc1 [Compound 119, 9-(Biphenyl-2-yl)-2-(3-hydroxyphenyl)-8-oxo-8,9-dihydro-7H-purine-6-carboxamide] | 293 to 296 °C |
| COc1ccccc1-n1c(=O)[nH]c2c(C(N)=O)nc(N[C@@H]3CCNC3)nc21 [Compound 105, (R)-9-(2-Methoxyphenyl)-8-oxo-2-(pyrrolidin-3-ylamino)-8,9-dihydro-7H-purine-6-carboxamide] | > 400 °C |
| COc1ccccc1-n1cnc2c(C(N)=O)nc(Nc3cccc(O)c3)nc21 [Compound 51, 2-(3-Hydroxyphenylamino)-9-(2-methoxyphenyl)-9H-purine-6-carboxamide] | 155 to 157 °C |
| COc1ccccc1-n1c(=O)[nH]c2c(C(N)=O)nc(N[C@H]3CC[C@H](O)CC3)nc21 [Compound 108, 2-(trans-4-Hydroxycyclohexylamino)-9-(2-methoxyphenyl)-8-oxo-8,9-dihydro-7H-purine-6-carboxamide] | 165 to 167 °C |
| CC(C)(C)c1ccccc1-n1c(=O)[nH]c2c(C(N)=O)nc(-c3cccc(O)c3)nc21 [Compound 125, 9-(2-tert-Butylphenyl)-2-(3-hydroxyphenyl)-8-oxo-8,9-dihydro-7H-purine-6-carboxamide] | 294 to 297 °C |
| COc1ccccc1-n1c(=O)[nH]c2c(C(N)=O)nc(N[C@H]3CCNC3)nc21 [Compound 106, (S)-9-(2-Methoxyphenyl)-8-oxo-2-(pyrrolidin-3-ylamino)-8,9-dihydro-7H-purine-6-carboxamide] | > 400 °C |
| CC(C)Cc1ccccc1-n1c(=O)[nH]c2c(C(N)=O)nc(-c3cccc(O)c3)nc21 [Compound 161, 2-(3-Hydroxyphenyl)-9-(2-isobutylphenyl)-8-oxo-8,9-dihydro-7H-purine-6-carboxamide] | > 260 °C |
| CC(C)c1ccccc1-n1c(=O)[nH]c2c(C(N)=O)nc(-c3ccc4[nH]ccc4c3)nc21 [Compound 139, 2-(1H-Indol-5-yl)-9-(2-isopropylphenyl)-8-oxo-8,9-dihydro-7H-purine-6-carboxamide] | 310 °C (dec.) |
